Source: US8580728B2, “Use of fragrance compositions for the prevention of the development of indole base malodours from fecal and urine based soils” (Takasago International Corporation, priority 2006, dated 2013)

Experiment: Decrease of fragrance compound concentration during the indole inhibition test (GCMS)
Type: physicochemical
Set-up: key: Y = Yes
Conditions: 24 hours in fresh human urine, room temperature; for Decrease in Fragrance Compounds after 24 hours (%): >60%: category >60% decrease; for Decrease in Fragrance Compounds after 24 hours (%): 0-30%: category 0-30% decrease
Method: Advantageously, the appropriate fragrance compounds may be selected by using the following preferred indole inhibition test which comprises the following steps: • A) 0.02 g of fragrance and 0.02 g of Tergitol 15-s-12 was added to 7 g of fresh human urine in a 20 ml Headspace vial sealed with a PTFE faced septum and well mixed for 10 minutes using a magnetic stirrer. For a blank to test the suitability of a batch of fresh human urine, 7 g of human urine was used with 0.02 g of demineralised water and 0.02 g of Tergitol 15-s-12. If a control was required, to test the efficacy of product base for example, the control contained 7 g of human urine to which was added 0.02 g of fragrance, minus the active agents and 0.02 g of Tergitol 15-s-12. • B) The vials are placed in an autosampler tray at room temperature. • C) At different times the headspace in the vials is sampled for 5 minutes at 35° C. by an SPME fibre (PDMS fibre ex Supelco) after 10 minutes at 35° C. (incubation time). • D) The SPME fibre is desorbed 1 minute at 265° C. from a CTC Combipal autosampler and injected in splitless mode onto an Agilent GC-MS 5973N with a HP-INNOWAX column (30 m×0.25×0.25). (Oven conditions: 50° C. during 2 min-to 250° C. at 10° C./min-250° C. during 5 minutes). • E) Under the above GC-MS conditions, indole has a retention time of 19.14 minutes, and can be recognised by its characteristic ions (m/z 117, m/z 89 and m/z 90). • F) In the range of values determined in this work, the area of the indole peak (117) is linearly related to the actual concentration in the vial, and was used without further correction to establish the concentration of indole in “Active” and “Blank” and if present any “Control” fragrances. • G) The material is deemed to be active if the indole concentration in the test sample is below 0.01 ppm (wt/wt) after 24 hours incubation at room temperature and the indole in the blank samples is between 0.25 ppm (wt/wt) and 1.25 ppm (wt/wt) indole after 24 hours storage at room temperature. • H) The change in the active ingredient concentration is determined by comparing measurements at the start of the experiment and after 24 hours using appropriate characteristic ions.
This can be determined by measuring the fragrance concentration in the sample containing the test cocktail at the start and end of the indole inhibition test as described in step I of the test. If the difference between the measurements is less than 60% preferably less than 30% then the material is considered as not to have changed sufficiently to alter the fragrance note and to be particularly preferred.
A sample of fresh human urine is divided into equal portions and a fragrance containing one or more of the effective materials was added as described in the Indole Inhibition Test. […] The samples were stored and after 24 hours the indole content and fragrance active content is measured by gas chromatography with mass spectrometric (GCMS) detection. Those formulations containing active ingredients prevented the formation of indole while both the unfragranced and the alcohol containing control samples had much greater quantities of indole present. Also for the active compounds a GCMS measurement indicated the extent to which the compound was itself consumed as part of the process. In table 2 the decrease in fragrance components has been classified into 3 categories and the letter Y indicates the appropriate category for the compounds which have been measured. The absence of a letter Y in any category means that the decrease has not been measured for that compound.

Structure (SMILES) | Decrease in Fragrance Compounds after 24 hours (%): 0-30% | also measured
CCCCCCCCCCC=O [Aldehyde C11] |  | Decrease in Fragrance Compounds after 24 hours (%): >60%: Y
O=Cc1ccccc1 [Benzaldehyde] | Y | 
O=C/C=C/c1ccccc1 [Cinnamic aldehyde] | Y | 
CC(C)=CCCC(C)=CC=O [Citral] | Y | 
C=C(C)C1CC=C(C=O)CC1 (stereo not shown) [Perilla aldehyde] | Y | 
CCC/C=C/C=O [Trans 2 hexenal] |  | Decrease in Fragrance Compounds after 24 hours (%): 0-60% (category 0-60% decrease): Y
CCc1occc(=O)c1O [Veltol Plus] |  | Decrease in Fragrance Compounds after 24 hours (%): >60%: Y
